# Reference: article PMC12514245, “Impaired migration and lung invasion of human melanoma by a novel small molecule targeting the transmembrane domain of death receptor p75^NTR” (EMBO Molecular Medicine, 2025)
# Values joined by “and” are separate entries in the source; they are usually repeats but may differ in a detail not shown here. Identical values can stand only once. “Also recorded” adds a separate entry of the source. Like-named read-outs stand apart in the source and are kept apart here.
# Columns and labels:
# [1] = test system: fascin in Triton-insoluble fraction of A875 NT cells; test: Detergent-insolubility assay of fascin, A875 NT; format: cell-based, human; details: for Fold change (compared to untreated cells): insoluble/total fascin
# Procedure: A single cell suspension was obtained by trypsinization followed by centrifugation and detergent extraction with lysis buffer (with 0.5% Triton X-100). Then, immediately centrifuged at 8700 g for 3 min. The resulting pellets (containing the Triton X-100-resistant proteins) were suspended in lysis buffer without Triton X-100. In parallel, cells were centrifuged and then directly suspended in lysis buffer. The Triton X-100- resistant proteins and total cell lysates were analyzed by SDS–PAGE and Western blotting with anti-fascin antibody.
# [2] = Plasma pharmacokinetics in mice; format: in vivo, C57BL/6 mice; details: for Cmax: read-out: C0/Cmax; for Vd: read-out: Vss
# [3] = test system: A875-shp75 melanoma xenograft; test: Melanoma lung invasion assay, A875-shp75, treatment from one day before cell injection; format: in vivo, SCID mice
# Procedure: Next, to assess the potential inhibitory effects of Np75-4A22 on melanoma cell migration and tissue invasion in vivo, we utilized the highly metastatic human A875 xenograft model. […] Initially, to mimic metastatic dissemination from the primary tumor site, A875-NT or A875-shp75 cells expressing GFP-Luc (for live-monitoring of tumor growth) were injected intravenously in female SCID mice 24 h following a single oral administration of Np75-A422 (200 mg/kg) or drug vehicle alone. Mice received 3 cycles of Np75-A422 (200 mg/kg/day) following a 5 day on and 2 days off drug schedule for a total of 3 weeks (Fig. 8A). Metastatic spread to the lungs was monitored weekly by luciferase activity using the Xenogen IVIS-200 Optical in vivo luciferase imaging system and mice were sacrificed after the third week. […] In addition, assessment of the metastatic spread was also quantified by histological assessment of non-consecutive lung sections stained for human nucleolin to detect the tumor cells. […] In addition, and as expected, high expression of p75^NTR was detected in lung tumors established by A875-NT cells but was negligible in tumors derived from A875-shp75 cells (Fig. EV10).
# Eight-week-old female SCID mice (Charles River Laboratories, Shrewsbury, MA, USA) were housed in groups of three to five and maintained on a 12-h light/dark schedule with a temperature of 22 °C ± 1 °C and a relative humidity of 50% ± 5%. Food and water were available ad libitum. This research study was reviewed and approved by the University of Calgary Animal Care Committee (AC22-0054) and McGill University (AUP-JGH-8269) and adheres to established ethical principles and guidelines. A875-GFPLuc (A875-NT) or A875-GFPLuc shp75 (A875-shp75) cells harvested using Puck’s EDTA were resuspended in PBS and injected intravenously into SCID mice (5 × 10^5 cells/200 μl per mouse). Np75-4A22 was dissolved in 0.5% sodium carboxymethyl cellulose (NaCMC) in reverse osmosis H2O and administered by oral gavage at 200 mg/kg/day starting one day prior to intravenous (tail vein) injection of tumor cells and continued for 3 1-week cycles (cycle: 5 days on drug, 2 days off drug). Tumor spread to the lung was monitored weekly by luciferase activity using the Xenogen IVIS-200 Optical in vivo luciferase imaging system as described previously (Lun et al, [2016]) and by immunohistochemistry (IHC) at designated time points. IHC was performed after formalin fixation, paraffin embedding and sectioning of the lungs, using a human-specific mouse polyclonal nucleolin antibody (1:500 dilution) and detected using Dako liquid DAB+ Substrate Chromogen System (Dako: k3468, California, USA) followed by a hematoxylin counterstain (Sigma, Oakville, ON, Canada). Sections were mounted and imaged on an Olympus phase contrast microscope (Olympus Life Science, Tokyo, Japan). For immunofluorescence, sections were stained with anti-human nucleolin and anti-human p75NTR antibodies (1:1000 dilution), subsequently detected with 1:200 dilutions of Alexa Fluor™ 488 Goat anti-Mouse IgG (H + L) Highly Cross-Adsorbed Secondary Antibody and Alexa Fluor™ 568 Goat anti-Rabbit IgG (H + L) Cross-Adsorbed Secondary Antibody. Sections were further stained with DAPI to detect all nuclei. Between each treatment, TBS Automation Wash Buffer (Biocare Medical TWB945M) was employed. Images were taken with LSM800 confocal microscope and ZEN system.
# [4] = test system: A875 shp75 knock-down cells; test: Cleaved PARP western blot (apoptosis), A875 shp75; format: cell-based, human
# Procedure: One of the main biological readouts of p75^NTR activity in response to neurotrophins is the induction of caspase-mediated apoptotic cell death (Underwood and Coulson, [2008]; Friedman, [2010]; Ibáñez and Simi, [2012]).
# COS7, A875 and WM115 cell lines were cultured under standard conditions in DMEM supplemented with 10% fetal calf serum, 100 units/ml penicillin, […] streptomycin, and 2.5 mM glutamine. All cells were authenticated and tested for mycoplasma contamination. A875-NT (control) and A875 shp75 (knockdown) cell lines were described previously (Goh et al, [2018]).
# [5] = C57BL/6, mouse, IV 3 mg/kg, female, plasma
# [6] = C57BL/6, mouse, IV 3 mg/kg, male, plasma
# [7] = C57BL/6, mouse, PO 10 mg/kg, female, plasma
# [8] = C57BL/6, mouse, PO 10 mg/kg, male, plasma
smiles,measurement,setting,value
Cc1cccc(-c2cncc(Nc3ccc(Br)c(Cl)c3Cl)n2)c1C [Np75-4A22],Toral fascin without background,"[1]; 1 μM 4A22, band OD, n1-n3",39995.1 and 74813.2 and 39347.1
same,Fold change (compared to untreated cells),"[1]; 1 μM 4A22, n1-n3",0.751 and 0.708 and 0.695
same,NGF-increased fascin in detergent insoluble fraction,"[1]; 1 μM, NGF 100 ng/ml",blocked this effect
same,Fold change (compared to untreated cells),"[1]; NGF + 1 μM 4A22, n1-n3",0.947 and 0.577 and 0.569
same,AUC(0-t),[2]; [5],1670 ng·h/mL
same,Cmax,"[2]; C57BL/6, mouse, IV 3 mg/kg, female, plasma, back extrapolated",3400 ng/mL
same,clearance,"[2]; C57BL/6, mouse, IV 3 mg/kg, female, plasma, read-out: CL",29.5 mL/min/kg
same,half-life,"[2]; C57BL/6, mouse, IV 3 mg/kg, female, plasma, read-out: T1/2 (converted)",8.64 h
same,Vd,[2]; [5],3.23 L/kg
same,AUC(0-t),[2]; [6],2070 ng·h/mL
same,Cmax,"[2]; C57BL/6, mouse, IV 3 mg/kg, male, plasma, back extrapolated",4710 ng/mL
same,clearance,"[2]; C57BL/6, mouse, IV 3 mg/kg, male, plasma, read-out: CL",23.9 mL/min/kg
same,half-life,"[2]; C57BL/6, mouse, IV 3 mg/kg, male, plasma, read-out: T1/2 (converted)",7.45 h
same,Vd,[2]; [6],2.09 L/kg
same,AUC(0-t),[2]; [7],2680 ng·h/mL
same,Tmax,[2]; [7],0.5 h
same,bioavailability,[2]; [7],48%
same,Cmax,[2]; [7],1030 ng/mL
same,AUC(0-t),[2]; [8],4730 ng·h/mL
same,Tmax,[2]; [8],0.5 h
same,bioavailability,[2]; [8],69%
same,Cmax,[2]; [8],1310 ng/mL
same,clearance,"[2]; i.v. 3 mg/kg, male and female",low clearance
same,half-life,"[2]; i.v. 3 mg/kg, male and female",long half-life
same,absorption,"[2]; oral 10 mg/kg, male and female",rapid absorption
same,oral bioavailability,"[2]; oral 10 mg/kg, male and female, 10 mg/kg",good oral bioavailability; also recorded: high oral bioavailability
same,"Metastatic Nodules/Lung Section, Average","[3]; A875-shp75, average of 5 non-consecutive slides per individual mouse",1.2 and 0.8 and 0.4 and 0.2 and 1.8 and 0.6 and 10.6
same,"Cancer Cells/Lung Section, Average per mouse","[3]; A875-shp75, average of 5 slides of one mouse",7 and 6 and 2.8 and 3.2 and 3.6 and 25.6 and 1.6 and 13 and 132.2
same,"Cancer Cells/Lung Section, group Average","[3]; A875-shp75, average of all mice",21.6667
same,"Metastatic Nodules/Lung Section, group Average","[3]; A875-shp75, average over all mice of the group",1.8
same,"Metastatic Nodules/Lung Section, Slide 1","[3]; A875-shp75, individual mouse, slide 1 of 5 non-consecutive slides/mouse",2 and 1 and 0 and 6
same,"Metastatic Nodules/Lung Section, Slide 2","[3]; A875-shp75, individual mouse, slide 2 of 5 non-consecutive slides/mouse",2 and 0 and 1 and 3 and 14
same,"Metastatic Nodules/Lung Section, Slide 3","[3]; A875-shp75, individual mouse, slide 3 of 5 non-consecutive slides/mouse",1 and 0 and 2 and 18
same,"Metastatic Nodules/Lung Section, Slide 4","[3]; A875-shp75, individual mouse, slide 4 of 5 non-consecutive slides/mouse",1 and 0 and 2 and 12
same,"Metastatic Nodules/Lung Section, Slide 5","[3]; A875-shp75, individual mouse, slide 5 of 5 non-consecutive slides/mouse",0 and 1 and 3
same,p75NTR-negative lung tumors,"[3]; oral 200 mg/kg/day, 3 weeks",not significantly affected
Oc1ccc(-c2cncc(Nc3ccc(Br)c(Cl)c3)n2)cc1 [Div17E5],apoptosis (cleavage of PARP) after p75NTR knock-down,[4],significantly reduced the pro-apoptotic effects
